Measured values published in patent US20070166696A1, “Adenovirus-transfected primary cells and methods of pathway mapping” (SANOFI-AVENTIS U.S. LLC, priority 2003, published 2007).

Assays:
Format in all cases: cell-based, human
CRE cis-element = test: Adenovirus luciferase reporter in CD14+ plate-bound macrophages; conditions: LPS 1 μg/ml, 24 hours post stimulation
Protocol: (§1) After a certain amount of time post stimulation, the cells are collected and luciferase activity is measured. Luciferase activity can be measured by an enzyme assay using a photon generating substrate and detecting photons by luminometer.
(§2) Similar experiments were performed for CD14^+ plate-bound macrophages. In this example, macrophages are obtained as follows: First, peripheral blood mononuclear cells (“PBMCs”) are obtained by density gradient centrifugation. One density gradient centrifugation medium is FICOLL PAQUE, commercially available from Amersham Biosciences. Monocytes are then isolated from the PBMCs by magnetic depletion of non-monocytes. Finally, macrophages are isolated from the monocytes by attachment of the monocytes to a tissue culture plate in the absence of fetal bovine serum (“FBS”).
(§3) In this example, resting cultures of isolated macrophages are then infected with a recombinant adenovirus containing the luciferase gene which is transcribed under the control of a specific cis-element. In this example, four recombinant adenovirus constructs are used to infect four separate cultures of macrophages, each construct containing one of four cis-elements: CRE, AP-1, NFκB, and ISRE. The macrophages are infected at a MOI of 100 per cell. […] At 24 hours post stimulation, cells are harvested and luciferase activity is measured by luminometer. […]

AP-1 cis-element [1] = test: as above; conditions: LPS 1 μg/ml, 24 hours post stimulation
Protocol: as §1, §2, §3

ISRE cis-element = test: Adenovirus luciferase reporter in iDCs; conditions: LPS 1 μg/ml, 2, 4, 8, 24 hours time course
Protocol: as §1
(§4) Similar experiments were performed for in vitro differentiated dendritic cells (“iDCs”). In this example, iDCs are obtained as follows: First, peripheral blood mononuclear cells (“PBMCs”) are obtained by density gradient centrifugation. One density gradient centrifugation medium is FICOLL PAQUE, commercially available from Amersham Biosciences. Monocytes are then isolated from the PBMCs by magnetic depletion of non-monocytes. Finally, iDCs are isolated from the monocytes by treatment of the monocytes with ILA and GM-GSF for 6 days.
(§5) In this example, resting cultures of isolated iDCs are then infected with a recombinant adenovirus containing the luciferase gene which is transcribed under the control of a specific cis-element. In this example, three recombinant adenovirus constructs are used to infect three separate cultures of iDCs, each construct containing one of three cis-elements: AP-1, NFκB, and ISRE. The iDCs are infected at a MOI of 100 per cell. After 16 hours of incubation post infection, the iDCs are then either mock stimulated (“C”) or stimulated with lipopolysaccharide (“LPS”) at the concentration of 1 μg/ml. At 2 hours, 4 hours, 8 hours, and 24 hours post stimulation, cells are harvested and luciferase activity is measured by luminometer. FIG. 6B contains three charts depicting the time course of AP-1, NFκB, and ISRE stimulation, respectively. […] These charts also indicate different time courses of activation.

NFκB cis-element = test: Adenovirus luciferase reporter in iDCs; conditions: LPS 1 μg/ml, 2, 4, 8, 24 hours time course
Protocol: as §1, §4, §5

AP-1 cis-element [2] = test: Adenovirus luciferase reporter in iDCs; conditions: LPS 1 μg/ml, 2, 4, 8, 24 hours time course
Protocol: as §1, §4, §5

lipopolysaccharide [LPS]
activation of the CRE cis-element (luciferase activity) (CRE cis-element): significant stimulated activation | activation of the AP-1 cis-element (luciferase activity) (AP-1 cis-element [1]): significant stimulated activation | stimulation of the ISRE cis-element (luciferase activity) (ISRE cis-element): significant stimulation | stimulation of the NFκB cis-element (luciferase activity) (NFκB cis-element): significant stimulation | stimulation of the AP-1 cis-element (luciferase activity) (AP-1 cis-element [2]): significant stimulation
